Experimental data reported in ChEMBL document CHEMBL5036365, “A Molecular Networking Based Discovery of Diketopiperazine Heterodimers and Aspergillicins from Aspergillus caelatus” (J Nat Prod, 2022).
Activity calls are given as the source filed them.

Tests used:
HepG2 [1] = assay: Cytotoxicity against human HepG2 cells at 40 ug/ml treated for 72 hrs by MTT assay; assay type: functional, cell-based; conditions: dose 40.0 µg/ml
Botrytis cinerea [2] = assay: Antifungal activity against Botrytis cinerea B05.10 at 160 ug/ml incubated for 24 hrs by agar based assay; assay type: functional, organism-based; conditions: dose 160.0 µg/ml
Fusarium graminearum [3] = assay: Antifungal activity against Fusarium graminearum BRFM 1982 at 160 ug/ml incubated for 24 hrs by agar based assay; assay type: functional, organism-based; conditions: dose 160.0 µg/ml
Pyricularia grisea [4] = assay: Antifungal activity against Magnaporthe grisea CF-105765 at 160 ug/ml incubated for 24 hrs by agar based assay; assay type: functional, organism-based; conditions: dose 160.0 µg/ml
HepG2 [5] = assay: Cytotoxicity against human HepG2 cells at 12.5 ug/ml treated for 72 hrs by MTT assay; assay type: functional, cell-based; conditions: dose 12.5 µg/ml
Botrytis cinerea [6] = assay: Antifungal activity against Botrytis cinerea B05.10 at 50 ug/ml incubated for 24 hrs by agar based assay; assay type: functional, organism-based; conditions: dose 50.0 µg/ml
Fusarium graminearum [7] = assay: Antifungal activity against Fusarium graminearum BRFM 1982 at 50 ug/ml incubated for 24 hrs by agar based assay; assay type: functional, organism-based; conditions: dose 50.0 µg/ml
Pyricularia grisea [8] = assay: Antifungal activity against Magnaporthe grisea CF-105765 at 50 ug/ml incubated for 24 hrs by agar based assay; assay type: functional, organism-based; conditions: dose 50.0 µg/ml
HepG2 [9] = assay: Cytotoxicity against human HepG2 cells at 20 ug/ml treated for 72 hrs by MTT assay; assay type: functional, cell-based; conditions: dose 20.0 µg/ml
Botrytis cinerea [10] = assay: Antifungal activity against Botrytis cinerea B05.10 at 80 ug/ml incubated for 24 hrs by agar based assay; assay type: functional, organism-based; conditions: dose 80.0 µg/ml
Fusarium graminearum [11] = assay: Antifungal activity against Fusarium graminearum BRFM 1982 at 80 ug/ml incubated for 24 hrs by agar based assay; assay type: functional, organism-based; conditions: dose 80.0 µg/ml
Pyricularia grisea [12] = assay: Antifungal activity against Magnaporthe grisea CF-105765 at 80 ug/ml incubated for 24 hrs by agar based assay; assay type: functional, organism-based; conditions: dose 80.0 µg/ml
HepG2 [13] = assay: Cytotoxicity against human HepG2 cells at 25 ug/ml treated for 72 hrs by MTT assay; assay type: functional, cell-based; conditions: dose 25.0 µg/ml
Botrytis cinerea [14] = assay: Antifungal activity against Botrytis cinerea B05.10 at 100 ug/ml incubated for 24 hrs by agar based assay; assay type: functional, organism-based; conditions: dose 100.0 µg/ml
Fusarium graminearum [15] = assay: Antifungal activity against Fusarium graminearum BRFM 1982 at 100 ug/ml incubated for 24 hrs by agar based assay; assay type: functional, organism-based; conditions: dose 100.0 µg/ml
Pyricularia grisea [16] = assay: Antifungal activity against Magnaporthe grisea CF-105765 at 100 ug/ml incubated for 24 hrs by agar based assay; assay type: functional, organism-based; conditions: dose 100.0 µg/ml

Measured: Activity

CN1C(=O)[C@H](Cc2cn([C@@]34C[C@H]5C(=O)N(C)[C@H](Cc6ccccc6)C(=O)N5[C@@H]3N(C=O)c3ccccc34)c3ccccc23)NC(=O)[C@H]1Cc1ccccc1
inactive: HepG2 [1] | Botrytis cinerea [2] | Fusarium graminearum [3] | Pyricularia grisea [4]

COc1ccc(C[C@H]2C(=O)N[C@@H](C(C)C)C(=O)O[C@H](C)[C@H](NC(C)=O)C(=O)N[C@H](C(C)C)C(=O)N3CCC[C@H]3C(=O)N3CCC[C@H]3C(=O)N2C)cc1
inactive: HepG2 [1] | Botrytis cinerea [2] | Fusarium graminearum [3] | Pyricularia grisea [4]

CN1C(=O)[C@H](Cc2c[nH]c3cc([C@@]45C[C@H]6C(=O)N(C)[C@H](Cc7ccccc7)C(=O)N6[C@@H]4N(C=O)c4ccccc45)ccc23)NC(=O)[C@H]1Cc1ccccc1
inactive: HepG2 [1] | Botrytis cinerea [2] | Fusarium graminearum [3] | Pyricularia grisea [4]

CN1C(=O)[C@H](Cc2c[nH]c3cc([C@@]45C[C@H]6C(=O)N(C)[C@H](Cc7ccccc7)C(=O)N6[C@@H]4Nc4ccccc45)ccc23)NC(=O)[C@H]1Cc1ccccc1
inactive: HepG2 [5] | Botrytis cinerea [6] | Fusarium graminearum [7] | Pyricularia grisea [8]

CC[C@H](C)[C@H]1NC(=O)[C@@H](NC(C)=O)[C@@H](C)OC(=O)[C@H](C(C)C)NC(=O)[C@H](Cc2ccccc2)N(C)C(=O)[C@@H]2CCCN2C(=O)[C@@H]2CCCN2C1=O
inactive: HepG2 [9] | Botrytis cinerea [10] | Fusarium graminearum [11] | Pyricularia grisea [12]

CN1C(=O)[C@H](Cc2cn([C@@]34C[C@H]5C(=O)N(C)[C@H](Cc6ccccc6)C(=O)N5[C@@H]3Nc3ccccc34)c3ccccc23)NC(=O)[C@H]1Cc1ccccc1
inactive: HepG2 [13] | Botrytis cinerea [14] | Fusarium graminearum [15] | Pyricularia grisea [16]

CN1C(=O)[C@H](Cc2c[nH]c3ccc([C@]45C[C@H]6C(=O)N(C)[C@H](Cc7ccccc7)C(=O)N6[C@H]4Nc4ccccc45)cc23)NC(=O)[C@H]1Cc1ccccc1
inactive: HepG2 [1] | Botrytis cinerea [2] | Fusarium graminearum [3] | Pyricularia grisea [4]

CC[C@H](C)[C@H]1NC(=O)[C@@H](NC(C)=O)[C@@H](C)OC(=O)[C@H](C(C)C)NC(=O)[C@H](Cc2ccc(OC)cc2)N(C)C(=O)[C@@H]2CCCN2C(=O)[C@@H]2CCCN2C1=O
inactive: HepG2 [1] | Botrytis cinerea [2] | Fusarium graminearum [3] | Pyricularia grisea [4]
